Test results: US20060210584A1, “Method for preparing citrinin-free Monascus biomass and use of citrinin-free Monascus biomass” (priority 2005, published 2006)

What was measured:
mouse = conditions: cited from earlier work
[1] = test system: microsomal lipid peroxidation; test: Inhibition of microsomal lipid peroxidation (MDA-TBA); format: biochemical; conditions: rat liver microsomes, 10 μM FeSO4 and 0.1 mM ascorbic acid, 37° C. 60 min; aqueous extract
Procedure: (§1) A freeze-dried sample of Example 1 was weighed and made up to 100 mg/mL in distilled water. The solution was autoclaved at 121° C. for 15 min. The supernatant was harvested after centrifugation at 4° C. was stored at −20° C. A serial dilution was then made with the stock aqueous extract into a series of increasing concentrations of the extracts up to 100 mg/mL solution. For the assay of the scavenging of DPPH radicals, a methanolic extract (membrane-filtered; 0.45 μm membrane, Acrodisc 4CR, PTEE) (replacing the solvent water with methanol and procedure stated in the first sentence) was used instead.
Normal rats were sacrificed by cervical dislocation. The liver of the rats was rapidly homogenized in 0.25M of an ice-cold sucrose solution and the resultant solution was centrifuged at 12,000×g for 20 min at 4° C. The supernatant obtained was centrifuged at 15,000×g for 60 min at 4° C. […]
The microsomes (200-300 μg/mL) were incubated at 37° C. for 60 min with the extract sample of Monascus biomass at variable concentrations, 10 μM FeSO4 and 0.1 mM ascorbic acid in 1.0 mL of a phosphate buffered saline (PBS, 0.25M, pH7.4). […] After centrifugation of precipitated protein, the color reaction of MDA-TBA complex was detected at OD 532 nm. […]
where A was the absorbance (OD532) of the negative control, and A1 was that of the tested sample.

[2] = Scavenging of superoxide radicals (PMS-NADH/NBT); format: biochemical; conditions: PMS-NADH system, NBT, OD 560 nm; aqueous extract
Procedure: as §1
Superoxide radicals were generated in a PMS-NADH [phenazin methosulfate (PMS)-β-nicotinamide adenine dinucleotide (reduced from, NADH)] system by oxidation of NADH and assayed by the reduction of nitroblue tetrazolium (NBT). The superoxide radicals were generated in 3 mL of Tris-HCl buffer (16 mM, pH8.0), which contained 78 μM NADH, 50 μM NBT, 10 μM PMS and Monascus extracts at different concentrations to be tested. The color reaction between superoxide radicals and NBT was detected at OD 560 nm. L-ascorbic acid was used as a positive control. The inhibition rate (%) was calculated using the following formula: Inhibition rate (%)=(A−A1)/A×100%
where A was the absorbance of a negative control (distilled water), and A1 was the absorbance of the tested sample.

[3] = Reducing power (potassium ferricyanide); format: biochemical; conditions: absorbance 700 nm
Procedure: as §1
2.5 mL of 1% potassium ferricyanide [K3Fe(CN)6] was added to 1.0 mL of an aqueous Monascus extract of variable concentrations (prepared as stated above). The resultant mixture was incubated at 50° C. for 20 min. 2.5 mL of trichloracetic acid (TCA, 10%) were added to the mixture. 2.5 mL of the resultant solution were mixed with 2.5 mL of distilled water and 0.5 mL of FeCl3 solution (0.1%). The absorbance was measured at 700 nm. Increased absorbance of the reaction mixture indicated an increase of reducing power. Vitamin C was used as a positive control in this experiment.

[4] = Scavenging of DPPH radicals; format: biochemical; conditions: methanolic extract; absorbance 515 nm, 30 s
Procedure: as §1
1.8 mL of a methanolic solution of DPPH (6×10^−5M 2,2-diphenyl-1-picrylhydrazyl) was added to 0.2 mL of a methanolic Monascus extract of variable concentrations (prepared as described above). The absorbance of the reaction mixture was measured at 515 nm exactly 30s after the DPPH solution was added. Vitamin E and methanol were used as positive and negative controls, respectively.
The inhibition rate (%) was calculated using the following formula: Inhibition rate (%)=(A−A1)/A×100%
where A was the absorbance of the negative control, and A1 was that of the tested sample.

In the case of `CC1=C2C(=CO[C@H](C)[C@H]2C)C(O)=C(C(=O)O)C1=O` [citrinin], the “LD50 (lethal dose causing decrease of 50% population)” value (mouse) is given as 35 mg/kg.
With `O=C1O[C@H]([C@@H](O)CO)C(O)=C1O` [Vitamin C, L-ascorbic acid] the “effective concentration giving 50% inhibition of microsomal lipid peroxidation” value [1] was 0.1 mg/mL, the “effective concentration giving 50% inhibition, scavenging of superoxide radicals” value [2] was 1.5 mg/mL and the “reducing power, concentration range of action” value [3] was “less than 1 mg/mL”.
In the case of Vitamin E, the “effective concentration to give 50% inhibition, scavenging of DPPH radicals” value [4] is reported as 1 mg/mL.
